Test results from patent publication US5622948A, “Pyrrole pyridazine and pyridazinone anti-inflammatory agents” (Syntex (U.S.A.) Inc., priority 1994, dated 1997).
Several values for one entry are separate records, joined by “and”; a condition that tells them apart may be missing. Equal entries are not always repeated.

Experiments:
[1] = test system: carrageenan-induced paw edema; assay: Carrageenan-induced paw edema in the rat; assay type: in vivo; conditions: oral
Procedure: Carrageenan-induced paw edema in the rat has been used as the primary in vivo screen for anti-inflammatory activity of most NSAIDs.
Over a series of assays, in which Compound (16), suspended in SSV, was administered orally to rats 1 hour prior to injection of carrageenan, Compound (16) inhibited carrageenan-induced paw edema (ED30 =1.1±1.0 mg/kg).

[2] = test system: adjuvant-induced arthritis; assay: adjuvant-induced arthritis in the rat; assay type: in vivo
[3] = Pharmacokinetics in rat and monkey; assay type: in vivo
From the text: The pharmacokinetics of Compound (16) was studied in rat and monkey after intravenous and oral administration in solution (ethanol/polyethylene glycol/water, 1/5/4) or SSV.

[4] = test system: phenylquinone-induced writhing; assay: Phenylquinone-induced Mouse Writhing Assay; assay type: in vivo; conditions: 20 or 60 minutes prior to phenylquinone
Procedure: Analgetic activity is determined by the Phenylquinone-induced Mouse Writhing Assay, Hendershot, et al., J. Pharmacol. Exp. Ther., 125:237-240 (1959). This assay is one of several acute assays which have been used to assess the analgesic activity of NSAIDs. At the appropriate time after test material administration, phenylquinone is injected intraperitoneally to mice, inducing a series of characteristic "writhing" responses, which are counted between 10 and 20 minutes after phenylquinone injection.
In this assay, Compound (16), suspended in SSV, was tested over the dose range of 1-100 mg/kg administered 20 or 60 minutes prior to phenylquinone challenge.

COX I [5] = target: T1, COX I (Homo sapiens, UniProt P23219); assay: TxB2 production in human whole blood activated with ionophore (COX I); conditions: COX I IC50, inhibition of TxB2 production
T1 sequence (P23219 24-599): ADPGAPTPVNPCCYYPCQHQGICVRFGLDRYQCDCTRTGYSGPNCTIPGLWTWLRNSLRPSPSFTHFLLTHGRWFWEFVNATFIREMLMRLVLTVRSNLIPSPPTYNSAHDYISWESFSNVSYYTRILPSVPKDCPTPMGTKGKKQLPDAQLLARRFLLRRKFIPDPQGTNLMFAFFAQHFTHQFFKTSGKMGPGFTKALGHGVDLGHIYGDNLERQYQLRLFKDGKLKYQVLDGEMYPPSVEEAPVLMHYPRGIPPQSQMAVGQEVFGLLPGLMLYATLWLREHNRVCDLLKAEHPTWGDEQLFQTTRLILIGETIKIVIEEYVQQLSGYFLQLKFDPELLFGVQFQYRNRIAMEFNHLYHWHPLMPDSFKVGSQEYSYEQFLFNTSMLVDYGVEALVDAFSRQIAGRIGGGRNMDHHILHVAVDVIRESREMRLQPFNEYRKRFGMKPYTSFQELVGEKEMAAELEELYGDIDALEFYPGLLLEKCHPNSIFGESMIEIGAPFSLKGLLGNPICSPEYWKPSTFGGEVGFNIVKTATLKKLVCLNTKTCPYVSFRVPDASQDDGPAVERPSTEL

[6] = two week range finding toxicity study in rats; assay type: in vivo, rat
Procedure: A two week range finding study in rats was carried out at daily doses of 10, 30, 100 and 300 mg/kg of Compound (16).

COX I [7] = target: T1, COX I; assay: thromboxane B2 production in washed human platelets; assay type: cell-based; design: A 2 Kb fragment containing the coding region of COX I; made in house; host or cells: Sf9 insect cells, baculovirus (cDNA from Oxford Biomedical Research); conditions: EIA, read-out: COX I IC50, inhibition of thromboxane B2 production
Procedure: (§1) A summary of activities of Compound (16) against COX I and COX II in cell-free enzyme preparations and whole cells is presented in Table 1. The following abbreviations are used: AA is arachidonic acid, IL-1 is interleukin 1, PMA is phorbol myristate acetate, A23187 is a calcium ionophore (Sigma), BSA is bovine serum albumin and LPS is a lipopolysaccharide (Sigma).
30 min incubation with Compound (16)
b) 10 min activation, 20 μM AA
(§2) EIA determination of TxB2

COX I [8] = target: T2, COX I (Rattus norvegicus, UniProt Q63921); assay: TxB2 production in rat whole blood activated with A23187; assay type: cell-based; conditions: 15 min incubation; 30 min activation with A23187; EIA determination of TxB2; read-out: COX I IC50, inhibition of TxB2 production
T2 construct: Rat whole blood; from tissue; host or cells: rat whole blood
T2 sequence (Q63921 27-602): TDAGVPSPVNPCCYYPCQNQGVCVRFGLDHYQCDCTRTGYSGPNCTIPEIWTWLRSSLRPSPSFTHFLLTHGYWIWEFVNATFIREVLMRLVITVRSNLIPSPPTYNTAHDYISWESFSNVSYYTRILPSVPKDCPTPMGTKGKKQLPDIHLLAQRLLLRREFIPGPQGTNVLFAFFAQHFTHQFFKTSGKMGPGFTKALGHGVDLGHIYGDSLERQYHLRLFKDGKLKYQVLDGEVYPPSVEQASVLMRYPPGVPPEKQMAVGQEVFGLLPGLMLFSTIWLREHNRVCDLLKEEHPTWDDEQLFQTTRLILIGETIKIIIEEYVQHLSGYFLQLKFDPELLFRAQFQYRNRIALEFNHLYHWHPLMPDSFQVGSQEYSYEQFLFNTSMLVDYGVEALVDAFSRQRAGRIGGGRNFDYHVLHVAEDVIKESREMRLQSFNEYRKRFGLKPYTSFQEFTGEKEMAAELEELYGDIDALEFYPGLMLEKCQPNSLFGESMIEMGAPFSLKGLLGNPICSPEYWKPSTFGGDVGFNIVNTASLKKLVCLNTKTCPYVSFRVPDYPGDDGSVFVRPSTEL
Procedure: as §1
Rat whole blood 15 min incubation with Compound (16)
as §2

[9] = 10, 30, 100 and 300 mg/kg daily, two weeks

Structure (SMILES): Cc1cc(Cc2ccc(=O)[nH]n2)n(C)c1C(=O)c1ccc(Cl)cc1 [Compound 16, 6-[1,4-dimethyl-5-(4chloro-benzoyl)-1H-pyrrol-2-ylmethyl]-2H-pyridazin-3-one]
- ED30 ([1]; Rattus norvegicus, in SSV, 1 hour prior to carrageenan, series of assays, read-out: ED30, inhibition of carrageenan-induced paw edema): 1.1 ± 1 mg/kg
- inhibition of paw edema at the appropriate dose ([1]; maximum amount achievable with NSAIDs): ~ 60%
- ED40 ([2]; Rattus norvegicus, po, 408 h, based on the three assays): 3.2 ± 2.6 mg/kg
- inhibition of adjuvant-induced arthritis ([2]; first test, 2 mg/kg/day, oral bid 17 days): 31%
- inhibition of adjuvant-induced arthritis ([2]; first test, 5 mg/kg/day, oral bid 17 days): 66%
- inhibition of adjuvant-induced arthritis ([2]; second test, 2 mg/kg/day): 43%
- inhibition of adjuvant-induced arthritis ([2]; second test, 5 mg/kg/day): 48%
- inhibition of adjuvant-induced arthritis ([2]; second test, 10 mg/kg/day): 52%
- maximum inhibition of adjuvant-induced arthritis ([2]; third test, 100 mg/kg): 80%
- dose proportionality ([3]; 1-300 mg/kg): exhibited dose proportionality over a broad range of doses
- half-life ([3]; in vivo, after intravenous dosing): 2 to 3 h
- bioavailability ([3]; in vivo, rats and monkeys, oral): 40 to 80%
- inhibition of phenylquinone-induced writhing ([4]; 100 mg/kg, in SSV): 100%
- ED50 ([4]; Mus musculus, 1-100 mg/kg): ~10 mg/kg
- IC50 (COX I [5]; 15 min incubation with compound, 30 min with A23187 (ionophore), RIA determination of TxB2): 5.6 µM
- IC50 (COX I [5]; 30 min incubation, 15 min activation, A23187, EIA determination of TxB2): 3 µM
- clinical chemistry [6, 9]: No clinical chemistry abnormalities were detected
- clinical signs [6, 9]: no adverse clinical signs were noted
- gross necropsy findings [6, 9]: no drug-related gross necropsy findings
- histopathological findings [6, 9]: no histopathological findings
- lesions in the stomach or intestines [6, 9]: no lesions were noted in the stomach or intestines
- intestinal lesions in toxicology range-finding study ([6]; up to 300 mg/kg/day for 14 days): no intestinal lesions were observed
- IC50 (COX I [7]; 30 min incubation; a) 10 min activation, A23187 (calcium ionophore)): 2.3 µM
- IC50 (COX I [7]; 30 min incubation; b) 10 min activation, 20 μM AA): > 100 µM
- IC50 (COX I [8]): 6 µM and 5 µM and 4 µM
